Activity calls are given as the source filed them.
Columns and labels:
[1] = target: Voltage-gated inwardly rectifying potassium channel KCNH2 (Homo sapiens, UniProt Q12809); assay: hERG protection from proarrhythmic block, potency, dose response, cell-based, thallium flux (AID 2121); assay type: ADME
[2] = Vero cell cytotoxicity, dose response, cytotoxicity control for Vif-APOBEC3G degradation inhibitor project, Vero cells (AID 1117358); assay type: functional; conditions: Human immunodeficiency virus 1, Vero
[3] = target: 5-hydroxytryptamine receptor 1A (Homo sapiens, UniProt P08908); assay type: functional
5-hydroxytryptamine receptor 1A, sequence (P08908 whole entry): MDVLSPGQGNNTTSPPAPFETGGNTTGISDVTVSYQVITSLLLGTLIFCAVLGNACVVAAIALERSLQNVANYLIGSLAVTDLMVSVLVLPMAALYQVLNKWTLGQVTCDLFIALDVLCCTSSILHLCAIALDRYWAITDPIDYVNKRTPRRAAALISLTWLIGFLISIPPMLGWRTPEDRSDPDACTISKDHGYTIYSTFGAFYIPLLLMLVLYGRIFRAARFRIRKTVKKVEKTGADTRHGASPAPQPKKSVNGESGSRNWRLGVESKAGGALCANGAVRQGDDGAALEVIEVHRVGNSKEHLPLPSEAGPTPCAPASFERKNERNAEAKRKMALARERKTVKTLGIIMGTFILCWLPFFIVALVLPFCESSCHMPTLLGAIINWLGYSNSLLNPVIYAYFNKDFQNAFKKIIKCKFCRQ

[4] = inhibitors of intracellular T. cruzi replication, confirmation, NIH3T3 host cells, beta-gal luminescence (AID 2044); assay type: functional, cell-based;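 also: intracellular parasites grown in NIH/3T3 mouse fibroblasts as host cells; luminescent beta-galactosidase reporter signal from transgenic T. cruzi replicating inside host cells; inhibitors lower the luminescence signal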
[5] = cytotoxicity toward NIH3T3 fibroblasts, dose response, counter-screen, cell-based, ATP luminescence, mouse fibroblasts (AID 2010); assay type: functional;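 also: cells exposed to compound for about 90 hours before reading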
[6] = Luminescent dose response cell-based high throughput screening assay for inhibitors of the Janus kinase 2 mutant JAK2V617F. [Related pubchem assays: 1446 (Primary screen.), 1521 (Confirmation assay.), 1486 (Counter screen.)]; assay type: functional
BJ [7] = assay: cytotoxicity toward BJ-TERT fibroblasts, dose response, cell-based, RAS-independent, luminescence (AID 1933); assay type: functional; conditions: Homo sapiens
BJ [8] = assay: cells; assay type: functional, cell-based; conditions: Homo sapiens
BJ [9] = assay: cytotoxicity toward BJ-TERT-LT-ST fibroblasts, dose response, cell-based, RAS-independent, luminescence (AID 1935); assay type: functional; conditions: Homo sapiens;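 also: BJ fibroblasts immortalized with TERT plus LT and ST oncogenes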
[10] = cytotoxicity toward DRD oncogenic fibroblasts, dose response, cell-based, non-viral oncogenic, luminescence (AID 1934); assay type: functional; conditions: Homo sapiens
Vero [11] = assay: cytotoxicity of synthesized analogs in Vero 76, SAR follow-up, cytotoxicity control for West Nile virus antiviral project, Vero 76 cells (AID 2414); assay type: functional; conditions: Chlorocebus sabaeus
Vero [12] = assay: cytotoxicity of synthesized analogs in Vero cells, SAR follow-up, cytotoxicity control for West Nile virus antiviral project, cell-based, set II (AID 2402); assay type: functional; conditions: Chlorocebus sabaeus
[13] = inhibitors of firefly luciferase expression or activity, dose response, H4 neuroglioma cells, luminescence (AID 1990); assay type: functional, cell-based
[14] = Luminescence Cell-Based Dose Response HTS to Identify Inhibitors of 5'UTR Stem-Loop Driven Prion Protein mRNA Translation in H4 Neuroglioblastoma Cells. [Related pubchem assays: 1827 (Project Summary), 1813 (Primary HTS)]; assay type: functional
[15] = inhibitors of SNCA 5'UTR-driven reporter translation, confirmation, H4 neuroglioma cells, luminescence (AID 1988); assay type: functional, cell-based
[16] = inhibitors of Vif binding to APOBEC3G peptide, primary screen, biochemical, TR-FRET, GST-Vif 1-94, biotin-A3G peptide, dose response retest (AID 1117319); assay type: functional;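 also: TR-FRET signal of purified GST-Vif binding a biotinylated A3G peptide; inhibitors lower the FRET signal by blocking Vif and A3G binding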
[17] = target: Diphosphomevalonate decarboxylase (Streptococcus pneumoniae serotype 2 (strain D39 / NCTC 7466), UniProt Q9FD53); assay: S. pneumoniae DPM-DC inhibition retest, confirmation, biochemical, cuvette format, coupled NADH fluorescence (AID 1028); assay type: functional
Diphosphomevalonate decarboxylase, sequence (Q9FD53 whole entry): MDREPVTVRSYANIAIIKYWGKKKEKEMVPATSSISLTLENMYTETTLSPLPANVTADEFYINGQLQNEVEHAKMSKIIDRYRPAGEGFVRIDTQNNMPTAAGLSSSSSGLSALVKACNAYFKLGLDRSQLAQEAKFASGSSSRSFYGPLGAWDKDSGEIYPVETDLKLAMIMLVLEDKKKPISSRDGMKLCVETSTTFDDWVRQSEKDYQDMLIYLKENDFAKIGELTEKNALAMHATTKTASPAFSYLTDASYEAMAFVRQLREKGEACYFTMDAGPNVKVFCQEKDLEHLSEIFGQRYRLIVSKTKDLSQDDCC

[18] = target: Peroxisome proliferator-activated receptor gamma/Nuclear receptor coactivator 1 (Homo sapiens, UniProt P37231); assay: (§1) TR-FRET dose response biochemical High Throughput Screening assay for agonists of the steroid receptor coactivator 1 (SRC-1) recruitment by the peroxisome proliferator-activated receptor gamma (PPAR gamma): non-selective agonists. [Related pubchem assays (depositor defined):AID1300, AID1808, AID504735, AID631]; assay type: protein assay
[19] = target: Ubiquitin carboxyl-terminal hydrolase BAP1 (Homo sapiens, UniProt Q92560); assay: BAP1 deubiquitinase inhibitors, dose response, biochemical (AID 714); assay type: functional
[20] = target: Peroxisome proliferator-activated receptor gamma/Nuclear receptor coactivator 3 (Homo sapiens, UniProt P37231); assay: as §1, with “3 (SRC-3)” for “1 (SRC-1)”, “assays: 1301 (Confirmation screen.), 1048 (Primary screen.)]” for “assays (depositor defined):AID1300, AID1808, AID504735, AID631]”; assay type: functional
[21] = target: Peroxisome proliferator-activated receptor gamma/Nuclear receptor coactivator 2 (Homo sapiens, UniProt P37231); assay: TR-FRET dose response biochemical High Throughput Screening assay for agonists of the steroid receptor coactivator 2 (SRC-2) recruitment by the peroxisome proliferator-activated receptor gamma (PPAR gamma): non-selective agonists. [Related pubchem assays: 1297, 1032 ]; assay type: functional
[22] = THP-1 cell cytotoxicity, dose response, cytotoxicity control for Vif-APOBEC3G degradation inhibitor project, THP-1 cells (AID 1117359); assay type: functional; conditions: Human immunodeficiency virus 1, THP-1
[23] = target: Sphingosine 1-phosphate receptor 2 (Homo sapiens, UniProt O95136); assay: Dose Response Cell Based Assay for Antagonists of the S1P2 Receptor. [Related pubchem assays: 856, 736 ]; assay type: functional
Sphingosine 1-phosphate receptor 2, sequence (O95136 whole entry): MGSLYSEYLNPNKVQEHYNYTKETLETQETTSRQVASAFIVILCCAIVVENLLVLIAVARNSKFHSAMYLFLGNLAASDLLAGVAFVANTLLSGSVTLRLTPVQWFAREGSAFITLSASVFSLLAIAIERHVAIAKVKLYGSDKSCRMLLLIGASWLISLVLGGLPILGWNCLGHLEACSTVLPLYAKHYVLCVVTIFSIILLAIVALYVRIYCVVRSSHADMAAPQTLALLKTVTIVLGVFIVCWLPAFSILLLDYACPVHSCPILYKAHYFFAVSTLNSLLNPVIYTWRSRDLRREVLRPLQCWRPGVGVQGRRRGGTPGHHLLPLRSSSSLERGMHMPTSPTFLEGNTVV

INS1 = assay: beta cell apoptosis inhibitors, cytokine rescue, dose response, luminescence, retest (AID 449756); assay type: functional, cell-based; conditions: Rattus norvegicus;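 also: cell death triggered by IL-1 beta plus TNF-alpha plus IFN-gamma mixture; protective hits raise ATP signal compared with cytokine alone wells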
[24] = target: Signal transducer and activator of transcription 1-alpha/beta (Homo sapiens, UniProt P42224); assay: STAT1 signalling inhibitors, dose response, cell-based, NIH 3T3, luciferase reporter (AID 1396); assay type: functional
Signal transducer and activator of transcription 1-alpha/beta, sequence (P42224 whole entry): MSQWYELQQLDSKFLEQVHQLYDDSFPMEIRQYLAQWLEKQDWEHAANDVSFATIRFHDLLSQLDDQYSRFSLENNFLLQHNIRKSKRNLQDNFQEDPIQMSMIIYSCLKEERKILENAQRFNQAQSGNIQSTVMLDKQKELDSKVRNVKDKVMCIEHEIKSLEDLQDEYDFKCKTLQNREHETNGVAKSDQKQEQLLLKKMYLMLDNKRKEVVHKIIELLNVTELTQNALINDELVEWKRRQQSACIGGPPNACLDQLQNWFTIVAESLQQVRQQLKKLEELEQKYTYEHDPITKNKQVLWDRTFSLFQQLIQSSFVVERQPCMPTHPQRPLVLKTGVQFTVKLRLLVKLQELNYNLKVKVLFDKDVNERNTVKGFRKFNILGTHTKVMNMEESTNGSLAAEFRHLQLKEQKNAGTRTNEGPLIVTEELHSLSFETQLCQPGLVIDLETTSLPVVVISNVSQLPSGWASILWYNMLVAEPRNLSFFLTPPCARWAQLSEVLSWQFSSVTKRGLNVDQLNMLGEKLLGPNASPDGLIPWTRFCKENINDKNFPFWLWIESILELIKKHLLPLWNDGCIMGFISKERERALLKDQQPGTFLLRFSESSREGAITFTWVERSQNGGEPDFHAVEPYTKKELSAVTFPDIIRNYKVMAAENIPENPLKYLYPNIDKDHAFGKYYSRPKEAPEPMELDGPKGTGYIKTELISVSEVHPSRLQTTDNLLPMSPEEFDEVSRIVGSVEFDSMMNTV

Beta-galactosidase = Beta-galactosidase (Escherichia coli, UniProt Q8VNN2); assay: PubChem AID 485352; assay type: functional
Beta-galactosidase, sequence (Q8VNN2 whole entry): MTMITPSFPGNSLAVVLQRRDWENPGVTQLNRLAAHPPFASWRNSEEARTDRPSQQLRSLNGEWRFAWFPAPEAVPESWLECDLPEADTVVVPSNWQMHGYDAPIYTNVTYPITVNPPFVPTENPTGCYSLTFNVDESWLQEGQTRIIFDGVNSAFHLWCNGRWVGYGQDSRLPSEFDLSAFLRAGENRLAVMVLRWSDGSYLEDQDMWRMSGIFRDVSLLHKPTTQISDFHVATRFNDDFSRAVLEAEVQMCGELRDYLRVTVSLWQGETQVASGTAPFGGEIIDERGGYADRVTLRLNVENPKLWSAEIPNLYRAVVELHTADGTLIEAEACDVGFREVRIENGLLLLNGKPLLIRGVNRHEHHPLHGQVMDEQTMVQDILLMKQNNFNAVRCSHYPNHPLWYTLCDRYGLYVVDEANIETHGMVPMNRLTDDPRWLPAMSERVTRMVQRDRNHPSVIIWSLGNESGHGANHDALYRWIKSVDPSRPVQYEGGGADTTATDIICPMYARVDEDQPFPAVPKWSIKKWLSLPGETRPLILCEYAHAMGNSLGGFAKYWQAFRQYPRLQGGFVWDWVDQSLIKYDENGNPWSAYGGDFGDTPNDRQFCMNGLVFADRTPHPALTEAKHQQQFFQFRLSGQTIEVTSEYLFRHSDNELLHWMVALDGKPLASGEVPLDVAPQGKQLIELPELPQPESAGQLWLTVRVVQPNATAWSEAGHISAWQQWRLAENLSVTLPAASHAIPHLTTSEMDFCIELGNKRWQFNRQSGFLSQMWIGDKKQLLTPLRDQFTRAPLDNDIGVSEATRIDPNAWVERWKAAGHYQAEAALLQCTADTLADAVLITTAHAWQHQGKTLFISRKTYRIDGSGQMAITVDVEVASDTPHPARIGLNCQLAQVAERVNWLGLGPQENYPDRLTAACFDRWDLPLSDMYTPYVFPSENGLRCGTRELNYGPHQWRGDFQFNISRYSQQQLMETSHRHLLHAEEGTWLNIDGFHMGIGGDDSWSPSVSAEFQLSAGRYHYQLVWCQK

Vero [25] = assay: host cell cytotoxicity of antiviral hits, dose response, cytotoxicity control for West Nile virus antiviral project, secondary assay (AID 1650); assay type: functional; conditions: Chlorocebus sabaeus
[26] = Luminescence-based dose response cell-based high throughput screening assay for cytotoxic compounds using the IEC-6 intestinal epithelial cell line. [Related pubchem assays: 1858 (Summary AID.), 1825 (Counterscreen.), 1907 (Confirmation screen.)]; assay type: functional
[27] = target: T1, Type-1 angiotensin II receptor (Homo sapiens, UniProt P30556); assay: AT1 receptor antagonists, dose response, selectivity assay for APJ receptor antagonist project, cell-based, uHTS hits (AID 463214); assay type: functional;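 also: antagonist potency against angiotensin II stimulated AT1 response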
T1 sequence (P30556 whole entry): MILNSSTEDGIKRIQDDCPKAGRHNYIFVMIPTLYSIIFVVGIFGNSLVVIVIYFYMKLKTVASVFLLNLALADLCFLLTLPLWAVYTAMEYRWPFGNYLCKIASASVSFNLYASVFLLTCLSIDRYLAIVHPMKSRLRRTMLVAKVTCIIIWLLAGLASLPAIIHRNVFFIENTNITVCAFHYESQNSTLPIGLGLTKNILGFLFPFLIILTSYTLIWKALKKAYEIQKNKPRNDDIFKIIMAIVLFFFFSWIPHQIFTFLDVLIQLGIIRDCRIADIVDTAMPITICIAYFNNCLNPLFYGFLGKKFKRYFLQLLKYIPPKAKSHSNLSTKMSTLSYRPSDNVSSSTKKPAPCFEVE

Nonstructural protein 1 = Nonstructural protein 1 (Influenza A virus, UniProt Q194T2); assay type: functional, Influenza A virus (A/California/07/2009(H1N1))
Nonstructural protein 1, sequence (Q194T2 whole entry): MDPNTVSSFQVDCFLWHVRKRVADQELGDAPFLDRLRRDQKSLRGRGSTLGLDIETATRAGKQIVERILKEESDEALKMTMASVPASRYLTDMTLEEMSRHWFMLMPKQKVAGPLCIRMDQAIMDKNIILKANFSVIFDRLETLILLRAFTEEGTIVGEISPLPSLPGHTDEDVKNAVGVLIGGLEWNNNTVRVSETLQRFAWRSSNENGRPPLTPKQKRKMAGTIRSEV

Vero [28] = assay: cells; assay type: functional, cell-based; conditions: Chlorocebus sabaeus
BJ [29] = assay: cytotoxicity toward Ras-transformed BJeLR fibroblasts, dose response, cell-based, alamar blue fluorescence, cherrypicked samples (AID 2631); assay type: functional; conditions: Homo sapiens;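 also: confirmatory dose-response assay in RAS-dependent BJ fibroblasts engineered with TERT, LT and ST, with cytotoxicity read by fluorescence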
Vero [30] = assay: cells; assay type: functional; conditions: Chlorocebus sabaeus
Estrogen receptor = target: T2, Estrogen receptor (Homo sapiens, UniProt P03372);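 also: potency for inhibiting coactivator peptide recruitment to the receptor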
T2 sequence (P03372 whole entry): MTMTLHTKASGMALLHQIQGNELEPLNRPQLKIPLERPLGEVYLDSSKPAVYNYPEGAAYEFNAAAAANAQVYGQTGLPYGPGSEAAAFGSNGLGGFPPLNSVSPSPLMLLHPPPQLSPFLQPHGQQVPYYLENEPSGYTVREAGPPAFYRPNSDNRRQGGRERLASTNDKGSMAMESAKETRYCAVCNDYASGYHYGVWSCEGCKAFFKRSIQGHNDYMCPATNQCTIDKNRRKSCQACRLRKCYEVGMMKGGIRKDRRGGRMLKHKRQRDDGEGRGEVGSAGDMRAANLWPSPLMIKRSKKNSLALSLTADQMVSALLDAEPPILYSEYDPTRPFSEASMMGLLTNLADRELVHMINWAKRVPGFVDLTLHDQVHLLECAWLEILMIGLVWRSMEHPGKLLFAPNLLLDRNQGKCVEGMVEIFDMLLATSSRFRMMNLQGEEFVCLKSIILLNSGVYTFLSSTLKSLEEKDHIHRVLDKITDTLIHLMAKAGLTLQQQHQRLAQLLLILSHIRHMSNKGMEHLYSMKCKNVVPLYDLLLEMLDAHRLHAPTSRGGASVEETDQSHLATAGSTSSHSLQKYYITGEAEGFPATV

Estrogen receptor beta = Estrogen receptor beta (Homo sapiens, UniProt Q92731);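 also: recombinant ER-beta bound to coactivator SRC1 peptide in presence of estradiol agonist; inhibitors block coactivator peptide binding and lower the FRET signal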
Estrogen receptor beta, sequence (Q92731 whole entry): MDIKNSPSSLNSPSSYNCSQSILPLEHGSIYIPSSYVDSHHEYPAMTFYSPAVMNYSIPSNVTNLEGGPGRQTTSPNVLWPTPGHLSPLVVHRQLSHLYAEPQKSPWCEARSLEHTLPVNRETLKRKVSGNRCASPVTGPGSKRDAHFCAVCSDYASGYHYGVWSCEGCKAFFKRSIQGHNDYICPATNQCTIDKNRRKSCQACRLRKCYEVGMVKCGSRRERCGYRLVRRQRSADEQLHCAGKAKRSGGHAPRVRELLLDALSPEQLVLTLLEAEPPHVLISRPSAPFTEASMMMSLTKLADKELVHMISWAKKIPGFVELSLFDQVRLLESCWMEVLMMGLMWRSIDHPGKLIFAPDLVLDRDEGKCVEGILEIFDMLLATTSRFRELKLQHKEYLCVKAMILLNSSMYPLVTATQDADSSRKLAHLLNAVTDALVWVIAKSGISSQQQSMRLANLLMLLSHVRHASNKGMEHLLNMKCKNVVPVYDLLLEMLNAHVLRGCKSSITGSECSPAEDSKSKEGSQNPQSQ

[31] = Concentration-dependent survival of SW480 colon cancer line, luminescence detection with CellTiter-Glo, half-maximal inhibitory concentration (AID 1117338); assay type: functional
[32] = RKO cell viability reduction, dose response, CellTiter-Glo luminescence (AID 1117322); assay type: functional
[33] = cytotoxicity toward HCT116 cells – cell-based, CellTiter-Glo luminescence, IC50, dose response (AID 1117332); assay type: functional; conditions: HCT-116
[34] = SNU-C1 cell viability reduction, dose response, CellTiter-Glo luminescence (AID 1117323); assay type: functional, cell-based
[35] = half-maximal inhibitory concentration for glucagon-like peptide-1 release, STC-1 cell line, dose-response (AID 1117345); assay type: functional, cell-based
[36] = cytotoxicity toward Colo320 cells – cell-based, CellTiter-Glo luminescence, IC50, dose response (AID 1117334); assay type: functional; conditions: COLO 320
[37] = cytotoxicity toward HT-29 cells – cell-based, CellTiter-Glo luminescence, IC50, dose response (AID 1117330); assay type: functional
[38] = CellTiter-Glo luminescent dose response of DLD-1 viability loss (AID 1117352); assay type: functional
[39] = HCT116 cell viability decrease, GSK3B pretreatment – CellTiter-Glo, IC50, dose response (AID 1117339); assay type: functional; conditions: HCT-116
[40] = Glucagon-like peptide 1 release potency, NCI-H716 cell line, dose-response, half-maximal inhibitory concentration (AID 1117344); assay type: functional, cell-based

Voltage-gated inwardly rectifying potassium channel KCNH2, sequence (Q12809 whole entry): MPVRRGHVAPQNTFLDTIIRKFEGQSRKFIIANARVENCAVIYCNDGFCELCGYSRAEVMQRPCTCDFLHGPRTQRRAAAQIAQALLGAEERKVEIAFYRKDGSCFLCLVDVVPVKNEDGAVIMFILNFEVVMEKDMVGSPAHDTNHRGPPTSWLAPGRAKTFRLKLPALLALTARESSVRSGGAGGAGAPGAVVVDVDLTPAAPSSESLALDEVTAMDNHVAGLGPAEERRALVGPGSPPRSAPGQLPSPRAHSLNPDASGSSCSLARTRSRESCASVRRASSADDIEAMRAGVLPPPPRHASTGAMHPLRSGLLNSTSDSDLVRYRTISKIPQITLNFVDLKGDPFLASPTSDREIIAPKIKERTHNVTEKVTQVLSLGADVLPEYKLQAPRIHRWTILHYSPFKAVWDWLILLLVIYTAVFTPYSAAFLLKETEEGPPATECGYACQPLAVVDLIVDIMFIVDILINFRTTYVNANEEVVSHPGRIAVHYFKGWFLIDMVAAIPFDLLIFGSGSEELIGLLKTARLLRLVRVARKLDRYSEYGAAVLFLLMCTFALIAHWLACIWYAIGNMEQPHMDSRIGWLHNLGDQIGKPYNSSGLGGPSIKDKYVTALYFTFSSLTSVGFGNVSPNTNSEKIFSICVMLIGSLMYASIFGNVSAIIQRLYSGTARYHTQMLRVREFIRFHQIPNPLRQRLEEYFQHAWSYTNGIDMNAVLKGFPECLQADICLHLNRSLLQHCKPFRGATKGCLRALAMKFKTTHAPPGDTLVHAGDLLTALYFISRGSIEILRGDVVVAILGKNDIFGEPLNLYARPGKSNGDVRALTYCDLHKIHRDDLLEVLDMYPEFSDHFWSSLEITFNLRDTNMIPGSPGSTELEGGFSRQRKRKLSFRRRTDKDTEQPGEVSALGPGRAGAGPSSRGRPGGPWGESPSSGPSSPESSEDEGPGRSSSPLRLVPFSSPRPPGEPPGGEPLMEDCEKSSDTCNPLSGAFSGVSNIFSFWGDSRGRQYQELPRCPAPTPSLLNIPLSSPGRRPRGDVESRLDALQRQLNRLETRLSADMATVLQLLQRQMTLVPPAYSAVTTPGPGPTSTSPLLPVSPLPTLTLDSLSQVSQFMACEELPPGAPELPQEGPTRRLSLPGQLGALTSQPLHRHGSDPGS

In the case of `COc1ccc(OC)c(NC(=S)NC(=O)c2ccc(Br)o2)c1`, the EC50 [1] is reported as 0.01 µM (active).

With `O=C(CSc1nc2cc(Cl)ccc2s1)N1CCN(C(=O)c2ccco2)CC1` the CC50 [2] was > 40 µM (active).

For `CC(CCc1ccccc1)NC(=O)CSc1nc(N)cc(N)n1` (stereo unspecified), the EC50 [3] was > 50 µM (not active).

In the case of `CC(NS(=O)(=O)c1ccc(CCC(=O)N2CCN(C)CC2)cc1)c1ccccc1` (stereo unspecified), the EC50 [4] is reported as < 0.1 µM (active), the EC50 [5] is reported as > 60 µM (not active) and the EC50 (cells) is reported as 0.349 µM (active).

In the case of `Cc1nn(Cc2ccc(Cl)cc2Cl)c(C)c1NC(=O)CCl`, the IC50 [6] is reported as 2.44 µM (active), the EC50 (BJ [7]) is reported as 8.35 µM (active) and the EC50 (BJ [8]) is reported as 21.2 µM (active). For the same compound, the EC50 (BJ [9]) was > 150 µM (inconclusive) and the EC50 [10] was 12.1 µM (active).

For `O=C(CSc1nc2cccc(I)c2c(=O)n1-c1ccccc1)Nc1ccc2c(c1)CCC2`, the CC50 (Vero [11]) was > 133 µM (active) and the CC50 (Vero [12]) was > 200 µM (active).

With `Cc1ccc(NCc2nnc(SCc3ccc(C#N)cc3)n2Cc2ccco2)c(C)c1` the EC50 [13] was > 120 µM (not active), the EC50 [14] was > 120 µM (not active) and the EC50 [15] was > 120 µM (not active). The IC50 [16] was > 100 µM (active).

For `O=C(c1cccc(-n2sc3ccccc3c2=O)c1)N1CCCCC1`, the IC50 [17] was 13.6 µM (active).

In the case of `O=C(Nc1nnc(-c2ccco2)s1)C1CCN(S(=O)(=O)c2ccc(Cl)cc2)CC1`, the EC50 [18] is reported as 56.6 µM (inactive), the IC50 [19] is reported as > 50 µM (not active) and the EC50 [20] is reported as > 79.4 µM (not active). The EC50 [21] was 31.4 µM (not active).

With `Cc1cc(N(CCCl)CCCl)ccc1C=NNC(=O)c1cccnc1` the CC50 [22] was 20 µM (active).

For `Cc1ccc(-c2nn(-c3ccccc3)cc2/C=N/NC(=O)c2ccc(Br)o2)cc1`, the IC50 [23] was 3.36 µM (active) and the AC50 (INS1) was 0.716 µM (active).

With `CC1C(=O)NN=C1C(=O)N/N=C\C(Br)=C\c1ccccc1` (stereo unspecified) the IC50 [24] was 10.5 µM (not active).

For `C/C(=N\NC(=O)c1ccc(F)cc1)c1ccccn1`, the EC50 (BJ [7]) was 0.844 µM (inconclusive), the EC50 (Beta-galactosidase) was > 40 µM (inactive) and the CC50 (Vero [25]) was 2.28 µM (active). For the same compound, the EC50 (BJ [8]) was 1.98 µM (active), the IC50 [26] was 0.54 µM (active) and the IC50 [27] was 1.96 µM (active). For the same compound, the EC50 (BJ [9]) was 3.53 µM (active), the EC50 [10] was 5.06 µM (active) and the IC50 (Nonstructural protein 1) was 3 µM (active). For the same compound, the IC50 (Vero [28]) was > 25 µM (active), the EC50 (BJ [29]) was 0.475 µM (active) and the AC50 (INS1) was 0.523 µM (active). For the same compound, the CC50 (Vero [30]) was 2.98 µM (active).

With `CC(=N)/C(C#N)=C(/O)CSc1nnc(Cc2ccccc2F)n1N` the IC50 (Estrogen receptor) was > 50 µM (not active) and the IC50 (Estrogen receptor beta) was 13.6 µM (active).

In the case of `Clc1ccc(C(Cn2ccnc2)OCc2c(Cl)cccc2Cl)c(Cl)c1` (stereo unspecified) [ISOCONAZOLE], the IC50 [31] is reported as 2.6 µM (active), the IC50 [32] is reported as 4.01 µM (active) and the IC50 [33] is reported as 1.59 µM (active). The IC50 [34] was 0.886 µM (active), the IC50 [35] was > 40 µM (inactive) and the IC50 [36] was 1.82 µM (active). The IC50 [37] was 5 µM (inactive), the IC50 [38] was 2.36 µM (active) and the IC50 [39] was 1.4 µM (active). The IC50 [40] was > 40 µM (inactive).
